The values below come from article PMC7793531 (International Journal of Molecular Sciences, 2020).

In one experiment the target is T1, VEGF-A165/NRP-1 complex (Homo sapiens, UniProt O14786).
T1 construct: purchased R&D Systems
T1 sequence (O14786 22-641 limits assumed): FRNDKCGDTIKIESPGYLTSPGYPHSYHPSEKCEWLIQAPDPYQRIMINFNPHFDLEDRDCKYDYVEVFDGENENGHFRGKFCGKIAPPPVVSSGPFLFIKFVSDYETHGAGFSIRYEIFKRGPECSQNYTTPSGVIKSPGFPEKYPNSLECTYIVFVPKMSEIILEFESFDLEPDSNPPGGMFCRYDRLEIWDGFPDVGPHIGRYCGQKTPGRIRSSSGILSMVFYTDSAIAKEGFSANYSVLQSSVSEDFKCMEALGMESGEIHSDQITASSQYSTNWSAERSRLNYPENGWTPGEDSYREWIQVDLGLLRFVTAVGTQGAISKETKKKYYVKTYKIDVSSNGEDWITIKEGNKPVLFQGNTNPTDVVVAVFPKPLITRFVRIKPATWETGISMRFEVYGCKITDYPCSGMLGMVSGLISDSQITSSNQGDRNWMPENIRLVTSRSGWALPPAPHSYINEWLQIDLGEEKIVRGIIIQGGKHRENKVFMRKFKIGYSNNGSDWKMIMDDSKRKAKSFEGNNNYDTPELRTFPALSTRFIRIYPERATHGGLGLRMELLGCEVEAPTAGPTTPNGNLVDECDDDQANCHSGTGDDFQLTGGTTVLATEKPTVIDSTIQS
In words: Competitive ELISA-like assay, inhibition of bt-VEGF-A165 binding to immobilized NRP-1. The following applies: recombinant human NRP-1, bt-VEGF-A165, chemiluminescence; read-out: IC50, VEGF-A165/NRP-1 complex inhibitory effect. Here is the method:
Inhibitory activity of urea–peptide hybrids against VEGF-A165/NRP-1 complex formation was assessed with a screening ELISA-like assay. NRP-1 was immobilized on microplate wells by simple adsorption and urea–peptide hybrids competed for NRP-1 with biotinylated VEGF-A165 (bt-VEGF-A165). The amount of receptor bound bt-VEGF-A165 was visualized by its interaction with the streptavidin–horseradish peroxidase conjugate (strep-HRP) and the chemiluminescent substrate. The first analyzed group of compounds were analogues 1–3 with the urea bond between L1 and L2. […] The best hybrid in this group was compound 3, which had Lys^U (gDab) branching (where “g” corresponds to guanidinium group), but its IC50 value decreased only 2-fold. Therefore, we assume that no additional interactions between urea bond and the surface of the protein occurred. […] In the case of urea–peptide hybrids, the urea bond might be capable of forming additional hydrogen bonds with protein residues on the surface of NRP-1. The affinity of compounds may conceivably be affected by the colocation of the urea bond and the free amino group of hArg in the branching. In addition, for compounds 4–6, we can observe that decreasing the distance between the free amino group in the main chain and the urea bond in the branching has a positive effect on compounds’ affinity for NRP-1.
This method was previously described for NRP-1 [44, 45, 46]. Briefly, overnight coating at 4 °C of the flat bottom surface of a 96-well plate with 100 μL (200 ng/well) recombinant human NRP-1, NRP-2, VEGFR-1 or VEGFR-2 was followed by non-specific interactions blocking using 0.5% bovine serum albumin (BSA) in PBS. Next, 50 µL of urea–peptide hybrid in PBS and 50 µL (400 ng/mL) of human (bt)-VEGF-A165 in PBS containing 4 µg/mL of heparin were added respectively. Plates were incubated for 2 h at RT, and then washed and treated with streptavidin-horseradish peroxidase conjugate in PBS (1:8000). Next, 100 µL chemiluminescent substrate was added, and luminescence was quantified using Tecan Infinite F200Pro microplate reader (Männedorf, Switzerland). In a positive control (P) only (bt)-VEGF-A165 was present in wells. Not coated by receptor wells were treated as a negative control (N). Percentages of inhibition were calculated by the following formula:100% − [[(S − N)/(P − N)]∙100%](1) where S is the signal intensity measured in wells with urea–peptide hybrid. The IC50 of each urea–peptide hybrid was calculated using the nonlinear regression function with GraphPad Prism Version-5.01 (GraphPad Software, San Diego, CA, USA). Data are presented as log (inhibitor) versus normalized response-variable slope (Figure S16). Data are the means ± SEMs of two or three independent experiments, each performed in triplicate.

Experiment [1] concerns the target T2, VEGF-A165/VEGF-R1 complex (Homo sapiens, UniProt P17948).
T2 construct: purchased R&D Systems
In words: Competitive ELISA-like assay, VEGF-A165/VEGF-R1 complex formation. It counts as binding. The text has this:
(§1) Amino acid sequence homology for primary structures of NRP-1 and NRP-2 is 44% [81, 82]. Structural studies have shown that both receptors bind VEGF-A165 using a conserved binding pocket core, formed by the b1 subdomain loops. VEGF-A165 interacts also with VEGF-R1 and R2 receptors by different fragments encoded by exons 1–5 [84, 85]. Affinity studies were done using modified ELISA-like assay, performed in the same manner as affinity tests for NRP-1 after optimization of method for individual protein. […] However, this value is more than two times higher compared to VEGF-A165/NRP-1 complex inhibition.
(§2) This method was previously described for NRP-1 [44, 45, 46]. […] Next, 100 µL chemiluminescent substrate was added, and luminescence was quantified using Tecan Infinite F200Pro microplate reader (Männedorf, Switzerland). […] Percentages of inhibition were calculated by the following formula:100% − [[(S − N)/(P − N)]∙100%](1) where S is the signal intensity measured in wells with urea–peptide hybrid. The IC50 of each urea–peptide hybrid was calculated using the nonlinear regression function with GraphPad Prism Version-5.01 (GraphPad Software, San Diego, CA, USA). […]
In general terms: ELISA stands for enzyme-linked immunosorbent assay.

A further experiment has as its target T3, VEGF-A165/NRP-2 complex (Homo sapiens, UniProt O60462).
T3 construct: purchased R&D Systems
T3 sequence (O60462 23-864 limits assumed): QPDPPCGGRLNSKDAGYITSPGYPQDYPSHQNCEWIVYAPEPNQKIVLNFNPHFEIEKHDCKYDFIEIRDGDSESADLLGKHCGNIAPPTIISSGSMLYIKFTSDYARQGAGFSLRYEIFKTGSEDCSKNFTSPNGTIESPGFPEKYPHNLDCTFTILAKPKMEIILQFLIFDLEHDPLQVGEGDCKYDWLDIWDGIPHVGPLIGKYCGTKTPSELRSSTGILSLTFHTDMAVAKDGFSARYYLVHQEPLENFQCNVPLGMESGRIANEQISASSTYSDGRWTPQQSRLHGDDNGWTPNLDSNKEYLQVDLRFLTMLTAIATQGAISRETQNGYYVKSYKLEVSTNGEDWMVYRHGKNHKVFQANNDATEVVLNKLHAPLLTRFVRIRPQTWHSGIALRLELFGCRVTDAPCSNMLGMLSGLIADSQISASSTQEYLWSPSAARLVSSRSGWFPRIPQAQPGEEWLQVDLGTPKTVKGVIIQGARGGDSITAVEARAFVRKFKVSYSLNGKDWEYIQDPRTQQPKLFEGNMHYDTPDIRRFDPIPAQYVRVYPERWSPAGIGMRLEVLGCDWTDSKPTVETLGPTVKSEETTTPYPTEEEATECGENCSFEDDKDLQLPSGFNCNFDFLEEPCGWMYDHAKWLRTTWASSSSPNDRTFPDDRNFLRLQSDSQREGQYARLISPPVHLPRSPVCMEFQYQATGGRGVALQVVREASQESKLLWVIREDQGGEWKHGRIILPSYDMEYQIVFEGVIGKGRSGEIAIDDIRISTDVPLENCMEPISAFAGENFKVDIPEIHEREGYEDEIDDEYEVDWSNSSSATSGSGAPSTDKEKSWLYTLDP
In words: Competitive ELISA-like assay, VEGF-A165/NRP-2 complex formation. Conditions: tested 0.1–10 µM. In kind it is binding.
From the text: as §1, §2

Molecules are shown by their SMILES. Starred links: 1 amine or outer side, 2 acyl side, 3 side chain; linkers in the order of their positions; H or OH if unused. Non-standard residues stand in square brackets, D forms with d. Residues, ends and D or L forms follow the SMILES beside them. Groups on a side chain read outwards from the residue. ξ: configuration not given here. *: point of attachment. Oic(3aξ,7aξ) = O=C(O)[C@@H]1CC2CCCCC2N1; X1 = N=C(N)NCCCC[C@H](N)CN*; Dab = NCC[C@H](N)C(=O)O; CO = O=C([*:1])[*:2]

T2 sequence (P17948 27-756 limits assumed, one chain of several): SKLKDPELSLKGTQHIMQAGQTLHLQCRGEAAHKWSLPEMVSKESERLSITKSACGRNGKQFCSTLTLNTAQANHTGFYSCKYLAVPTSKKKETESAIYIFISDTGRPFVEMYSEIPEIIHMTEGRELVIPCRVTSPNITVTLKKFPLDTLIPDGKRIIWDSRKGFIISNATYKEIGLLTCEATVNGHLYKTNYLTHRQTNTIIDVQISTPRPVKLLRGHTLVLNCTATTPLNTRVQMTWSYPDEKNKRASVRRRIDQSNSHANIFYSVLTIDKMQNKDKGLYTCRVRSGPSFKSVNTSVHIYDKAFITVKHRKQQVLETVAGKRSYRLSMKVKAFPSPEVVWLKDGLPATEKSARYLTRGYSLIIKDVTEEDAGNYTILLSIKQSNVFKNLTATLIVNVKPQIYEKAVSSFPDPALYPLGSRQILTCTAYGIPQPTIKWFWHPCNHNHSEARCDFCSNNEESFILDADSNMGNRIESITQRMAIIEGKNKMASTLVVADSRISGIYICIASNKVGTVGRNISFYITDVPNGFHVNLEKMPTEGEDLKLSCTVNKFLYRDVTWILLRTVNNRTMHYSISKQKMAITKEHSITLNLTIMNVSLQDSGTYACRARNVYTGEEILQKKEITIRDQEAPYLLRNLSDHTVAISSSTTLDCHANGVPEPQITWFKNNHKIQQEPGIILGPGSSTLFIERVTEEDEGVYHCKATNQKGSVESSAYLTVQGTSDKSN

With `N=C(N)NCCCC[C@H](N)CNC(=O)NCC[C@H](N)C(=O)N[C@@H](CCN)C(=O)N1C2CCCCC2C[C@H]1C(=O)N[C@@H](CCCNC(=N)N)C(=O)O` (stereo partly drawn) [Compound 6, H-Dab(hArg^U)Dab-Oic-Arg-OH] (H-[Dab]([CO-X1])[Dab][Oic(3aξ,7aξ)]R-OH), the IC50 worked out at 190 nM at VEGF-A165/NRP-1 complex and 480 nM on VEGF-A165/NRP-2 complex. Further, the “IC50, VEGF-A165/VEGF-R1 complex formation” value in experiment [1] is listed as “no affinity”.
